Experimental data as given in US20190106460A1, “BINDING INHIBITORS OF THE BETA. TRANSDUCIN REPEAT-CONTAINING PROTEIN” (priority 2011, published 2019).
Starred links: 1 amine or outer side, 2 acyl side, 3 side chain; linkers in the order of their positions; H or OH if unused. Non-standard residues stand in square brackets, D forms with d. Residues, ends and D or L forms follow the SMILES beside them. No end group written: not given here. *: point of attachment. Phe(4-NO2) = N[C@@H](Cc1ccc([N+](=O)[O-])cc1)C(=O)O; Benzoyl(2-COOH) = O=C(O)c1ccccc1C(=O)*; Phe(3-F) = N[C@@H](Cc1cccc(F)c1)C(=O)O; Phe(4-F) = N[C@@H](Cc1ccc(F)cc1)C(=O)O; 1Nal = N[C@@H](Cc1cccc2ccccc12)C(=O)O; Phe(2-F) = N[C@@H](Cc1ccccc1F)C(=O)O; 3Pal = N[C@@H](Cc1cccnc1)C(=O)O; pS = N[C@@H](COP(=O)(O)O)C(=O)O; Suc = O=C(CCC(=O)[*:2])[*:1]; X6 = O=C(O)C1CCC(C(=O)*)CC1

Biological target: βTrCP (Homo sapiens, UniProt Q9Y297)
Sequence (Q9Y297 whole entry): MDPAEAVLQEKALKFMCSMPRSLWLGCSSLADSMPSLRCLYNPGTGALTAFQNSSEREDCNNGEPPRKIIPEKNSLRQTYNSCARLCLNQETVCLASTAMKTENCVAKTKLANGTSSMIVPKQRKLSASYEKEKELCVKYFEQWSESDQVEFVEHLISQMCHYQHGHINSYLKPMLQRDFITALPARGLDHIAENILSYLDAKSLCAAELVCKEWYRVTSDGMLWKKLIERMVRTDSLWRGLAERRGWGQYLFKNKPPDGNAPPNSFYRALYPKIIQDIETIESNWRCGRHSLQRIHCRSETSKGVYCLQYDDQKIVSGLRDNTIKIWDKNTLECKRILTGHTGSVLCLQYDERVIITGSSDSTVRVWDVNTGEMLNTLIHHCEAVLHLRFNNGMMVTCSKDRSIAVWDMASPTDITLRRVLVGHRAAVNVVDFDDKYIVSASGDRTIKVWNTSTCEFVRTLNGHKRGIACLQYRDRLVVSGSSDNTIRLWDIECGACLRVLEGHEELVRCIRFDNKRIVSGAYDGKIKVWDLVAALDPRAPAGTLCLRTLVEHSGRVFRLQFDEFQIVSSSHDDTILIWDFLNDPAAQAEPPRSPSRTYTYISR
Sequence (P63208 whole entry partner): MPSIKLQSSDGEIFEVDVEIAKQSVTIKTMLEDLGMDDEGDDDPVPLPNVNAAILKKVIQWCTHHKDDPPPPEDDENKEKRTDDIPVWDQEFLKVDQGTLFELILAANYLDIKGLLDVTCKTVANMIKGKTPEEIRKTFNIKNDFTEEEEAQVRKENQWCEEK
Assay: Fluorescence polarisation (FP) binding assay with fluorescein-tagged IκB peptide
Conditions: Tables 1, 3, 7, 8; 10 nM fluorescein-tagged IκB peptide; read-out: FP Assay IC50/μM

IC50 [µM]	Compound
91	NC(=O)[C@H](Cc1cccc(F)c1)NC(=O)[C@H](Cc1ccc(O)cc1)NC(=O)CNC(=O)[C@H](CCC(=O)O)NC(=O)CCC(=O)O [Suc-EGY-F(3F)-NH2] (Suc-EGY[Phe(3-F)]-NH2)
> 100	NC(=O)CC[C@H](N)C(=O)NCC(=O)N[C@@H](Cc1cccc(F)c1)C(=O)N[C@@H](Cc1ccc([N+](=O)[O-])cc1)C(=O)N[C@@H](CCC(=O)O)C(N)=O [QG-F(3F)-F(4NO2)-E-NH2]
71	COC(=O)CC[C@H](NC(=O)[C@H](Cc1ccc(OC)cc1)NC(=O)[C@H](Cc1ccccc1)NC(=O)CNC(=O)[C@H](CCC(=O)O)NC(=O)CCC(=O)O)C(N)=O [Suc-EGF-Y(Me)-E(OMe)-NH2] (Suc-EGFY(Me)E(OMe)-NH2)
> 100	NC(=O)[C@H](CCC(=O)O)NC(=O)[C@H](Cc1ccccc1)NC(=O)[C@H](Cc1ccccc1)NC(=O)CNC(=O)[C@H](CCC(=O)O)NC(=O)C1CCC(C(=O)O)CC1 (stereo partly drawn) [1,4-Chda-EGFFE-NH2] (X6-EGFFE-NH2)
91	NC(=O)[C@H](Cc1ccc([N+](=O)[O-])cc1)NC(=O)[C@H](Cc1ccc(O)cc1)NC(=O)CNC(=O)[C@H](CCC(=O)O)NC(=O)CCC(=O)O [Suc-EGY-F(4NO2)-NH2] (Suc-EGY[Phe(4-NO2)]-NH2)
> 100	CC[C@H](C)[C@H](NC(=O)CNC(=O)[C@H](CCC(=O)O)NC(=O)[C@H](N)CC(=O)O)C(=O)N[C@@H](Cc1ccccc1)C(=O)N[C@@H](CC(=O)O)C(N)=O [dEGIFD-NH2] (H-[dD]EGIFD-NH2)
> 100	DAGFFE-NH2 [DAGFFE-NH2]
> 100	EAGIFE-NH2 [EAGIFE-NH2]
> 100	NC(=O)[C@H](Cc1cccc(F)c1)NC(=O)[C@H](Cc1ccccc1F)NC(=O)CNC(=O)[C@H](CCC(=O)O)NC(=O)CCC(=O)O [Suc-EG-F(2F)-F(3F)-NH2] (Suc-EG[Phe(2-F)][Phe(3-F)]-NH2)
> 100	CC[C@H](C)[C@H](NC(=O)CNC(=O)[C@H](CC(N)=O)NC(=O)[C@H](N)CC(=O)O)C(=O)N[C@@H](Cc1ccccc1)C(=O)N[C@@H](CCCNC(=N)N)C(N)=O [dNGIFR-NH2] (H-[dD]NGIFR-NH2)
27.5	C[C@H](NC(=O)[C@H](CCC(=O)O)NC(=O)CCC(=O)O)C(=O)N[C@@H](Cc1cccc(F)c1)C(=O)N[C@@H](Cc1ccc([N+](=O)[O-])cc1)C(=O)N[C@@H](CCC(=O)O)C(N)=O [Suc-EA-F(3F)-F(4NO2)-E-NH2]
> 100	GDAGIHS-NH2 [GDAGIHS-NH2]
> 100	NC(=O)[C@H](CCC(=O)O)NC(=O)[C@H](Cc1cccc2ccccc12)NC(=O)[C@H](Cc1ccc([N+](=O)[O-])cc1)NC(=O)CNC(=O)[C@@H](N)CCC(=O)O [EG-F(4NO2)-1Nal-E-NH2] (H-EG[Phe(4-NO2)][1Nal]E-NH2)
> 100	ADAGIHS-NH2 [ADAGIHS-NH2]
71	NC(=O)[C@H](Cc1ccc(F)cc1)NC(=O)[C@H](Cc1ccc(O)cc1)NC(=O)CNC(=O)[C@H](CCC(=O)O)NC(=O)CCC(=O)O [Suc-EGY-F(4F)-NH2] (Suc-EGY[Phe(4-F)]-NH2)
> 100	CC[C@H](C)[C@H](NC(=O)CNC(=O)[C@H](COP(=O)(O)O)NC(=O)[C@H](CC(=O)O)NC(=O)CN)C(=O)N[C@@H](Cc1c[nH]cn1)C(=O)N[C@@H](CO)C(N)=O [GD-pS-GIHS-NH2] (H-GD[pS]GIHS-NH2)
> 100	CC[C@H](C)[C@H](NC(=O)CNC(=O)[C@H](COP(=O)(O)O)NC(=O)[C@H](CC(=O)O)NC(=O)[C@@H](N)C(C)C)C(=O)N[C@@H](Cc1c[nH]cn1)C(=O)N[C@@H](CO)C(N)=O [VD-pS-GIHS-NH2] (H-VD[pS]GIHS-NH2)

IC50 [µM]	Compound
82.1	C[C@H](NC(=O)[C@H](CCC(=O)O)NC(=O)CCC(=O)O)C(=O)N[C@@H](Cc1ccc(O)cc1)C(=O)N[C@@H](Cc1ccccc1)C(=O)N[C@@H](CCC(=O)O)C(N)=O [Suc-EAYFE-NH2]
> 100	CC[C@H](C)[C@H](NC(=O)CNC(=O)[C@H](C)NC(=O)[C@H](N)CC(=O)O)C(=O)N[C@@H](Cc1ccccc1)C(=O)N[C@@H](CC(=O)O)C(N)=O [dAGIFD-NH2] (H-[dD]AGIFD-NH2)
34.5	CC[C@H](C)[C@H](NC(=O)CNC(=O)[C@H](COP(=O)(O)O)NC(=O)[C@@H](N)CCC(=O)O)C(=O)N[C@@H](Cc1ccccc1)C(=O)N[C@@H](CCC(=O)O)C(N)=O [E-pS-GIFE-NH2] (H-E[pS]GIFE-NH2)
> 100	NC(=O)[C@H](Cc1ccc(F)cc1)NC(=O)[C@H](Cc1ccccc1)NC(=O)CNC(=O)[C@H](CCC(=O)O)NC(=O)CCC(=O)O [Suc-EGF-F(4F)-NH2] (Suc-EGF[Phe(4-F)]-NH2)
> 100	NC(=O)[C@H](CCC(=O)O)NC(=O)[C@H](Cc1cccc2ccccc12)NC(=O)[C@H](Cc1cccc(F)c1)NC(=O)CNC(=O)[C@@H](N)CCC(=O)O [EG-F(3F)-1Nal-E-NH2] (H-EG[Phe(3-F)][1Nal]E-NH2)
> 100	NC(=O)C[C@H](NC(=O)CNC(=O)[C@H](COP(=O)(O)O)NC(=O)[C@@H](N)CC(=O)O)C(=O)N[C@@H](Cc1ccccc1)C(=O)N[C@@H](CCC(=O)O)C(N)=O [D-pS-GNFE-NH2] (H-D[pS]GNFE-NH2)
3.63	NC(=O)[C@H](CCC(=O)O)NC(=O)[C@H](Cc1cccc2ccccc12)NC(=O)[C@H](Cc1cccnc1)NC(=O)CNC(=O)[C@H](CCC(=O)O)NC(=O)CCC(=O)O [Suc-EG-3Pal-1Nal-E-NH2] (Suc-EG[3Pal][1Nal]E-NH2)
> 100	C[C@H](NC(=O)c1ccccc1C(=O)O)C(=O)NCC(=O)N[C@@H](Cc1ccccc1)C(=O)N[C@@H](Cc1ccccc1)C(=O)N[C@@H](CCC(=O)O)C(N)=O [Phth-AGFFE-NH2] ({Benzoyl(2-COOH)}-AGFFE-NH2)
> 100	CC[C@H](C)[C@H](NC(=O)CNC(=O)[C@H](COP(=O)(O)O)NC(=O)[C@@H](N)CC(=O)O)C(=O)N[C@@H](Cc1ccccc1)C(=O)N[C@@H](Cc1c[nH]cn1)C(N)=O [D-pS-GIFH-NH2] (H-D[pS]GIFH-NH2)
15.1	CC[C@H](C)[C@H](NC(=O)CNC(=O)[C@H](CCC(=O)O)NC(=O)CCC(=O)O)C(=O)N[C@@H](Cc1cccc2ccccc12)C(=O)N[C@@H](CCC(=O)O)C(N)=O [Suc-EGI-1Nal-E-NH2] (Suc-EGI[1Nal]E-NH2)
> 100	CC[C@H](C)[C@H](NC(=O)CNC(=O)[C@H](C)NC(=O)CCC(=O)O)C(=O)N[C@@H](Cc1ccccc1)C(=O)N[C@@H](CCC(=O)O)C(N)=O [Suc-AGIFE-NH2] (Suc-AGIFE-NH2)
> 100	C[C@H](N)C(=O)NCC(=O)N[C@@H](Cc1cccc(F)c1)C(=O)N[C@@H](Cc1ccc([N+](=O)[O-])cc1)C(=O)N[C@@H](CCC(=O)O)C(N)=O [AG-F(3F)-F(4NO2)-E-NH2] (H-AG[Phe(3-F)][Phe(4-NO2)]E-NH2)
> 100	NC(=O)[C@H](CCC(=O)O)NC(=O)[C@H](Cc1ccc([N+](=O)[O-])cc1)NC(=O)[C@H](Cc1ccc(O)cc1)NC(=O)CNC(=O)[C@@H](N)CCC(=O)O [EGY-F(4NO2)-E-NH2] (H-EGY[Phe(4-NO2)]E-NH2)
> 100	DAGIFH-NH2 [DAGIFH-NH2]
> 100	CC[C@H](C)[C@H](NC(=O)CNC(=O)[C@H](COP(=O)(O)O)NC(=O)[C@@H](N)CC(=O)O)C(=O)N[C@@H](Cc1c[nH]cn1)C(=O)N[C@@H](CO)C(N)=O [D-pS-GIHS-NH2] (H-D[pS]GIHS-NH2)
> 100	LDASGIHS-NH2 [LDASGIHS-NH2]
